Data taken from US20190010524A1, “BIOLOGICAL METHODS FOR PREPARING A FATTY DICARBOXYLIC ACID” (Verdezyne, Inc., priority 2012, published 2019).

Columns and labels:
strain sAA1082 = experiment: Bioreactor conversion of ethyl decanoate to sebacic acid (Example 73); type: cell-based, Candida
Protocol: (§1) By conversion tests for ethyl decanoate were performed in 0.5 L Infors HT Multifors bioreactors (Infors AG, Switzerland) with working volumes of 0.4 L each. […] Fermentation medium. […] Bioreactors were equipped with two rushton impellers rotating at 1000 rpm. Bioreactors were inoculated to an OD of approximately 0.2 and growth continued for approximately 12-14 hours, at which point the conversion phase was initiated by evenly space boluses of ethyl decanoate. Culture pH was kept constant at 5.8 during the growth phase by automatic addition of 6 N KOH and temperature and airflow were controlled at 30° C. and 1 vvm respectively.
(§2) At induction, the pH was changed to 6.2 and maintained by addition of 6N KOH. Bioreactors were induced with an initial 4.0 ml bolus of decane for 6 hours with an airflow rate of 0.25 vvm to minimize evaporation.
(§3) Following this initial 6 hour induction, airflow was increased to 1 vvm and 58 μl of ethyl decanoate was added every 30 minutes for the next 6 hours. Ethyl decanoate boluses were then increased to 116 μl at a frequency of once per hour for the next 36 hours. In addition, a co-feed of dextrose was fed at a rate of 1.25 g/L-h. Final samples were taken 12 hours after the final ethyl decanoate bolus. Yield calculations were made for all cultures taking only added ethyl decanoate into account due to the volatility of decane and the lack of decanedioic acid formation following the initial induction period.

strain sAA2178 = experiment: as above; type: cell-based, Candida
Protocol: as §1, §2, §3

[1] = system: Candida strain ATCC 20962; experiment: as above; type: cell-based; conditions: decane induction
Protocol: as §1, §2
as §3, with “Yield calculations were made for all cultures taking only added ethyl decanoate into account due to the volatility of decane and the lack of decanedioic acid formation following the initial induction period.” left out

Candida [2] = conditions: stated as background; cited from earlier work
[3] = system: Candida tropicalis (ATCC20962); experiment: Fermentation procedure for conversion of decane to sebacic acid (Example 3); type: cell-based; conditions: GC at 44 hours after initiating the conversion phase, FIG. 16
Protocol: Filter sterilized modified SP92-glycerol fermentation medium (6.7 g/L yeast nitrogen base, 3.0 g/L yeast extract, 3.0 g/L (NH4)2SO4, 1.0 g/L K2HPO4, 1.0 g/L KH2PO4, 20 g/L glycerol) is transferred to a sterile fermentation vessel. Growth of Candida tropicalis (ATCC20962) is inoculated to an initial OD600nm of about 1.0 with a 5% inoculum and growth carried out under the following conditions: 30° C. with shaking at about 1000 rpm, 1 volume per volume per minute aeration (vvm), pH 5.8 and initial volume of 0.3 L. Growth proceeds for approximately 8 hours and the conversion phase is initiated by the addition of decane to 2 g/L. Continuous feeds for decane (1 g/L-h) and glucose (1.5 g/L-h) are initiated at the same time as the addition of the decane bolus. Fermentation conditions are maintained at 30° C., 1000 rpm, 1 vvm, and pH 5.8 for 44 hours.
Samples were collected for GC analysis at 44 hours after initiating the conversion phase. […] Significant evaporative losses from the decane feed bottles prevented an accurate determination of product yield.

Candida [4] = experiment: Toxicity of feedstock or by-product to the yeast (viable cell counts); type: cell-based
Description: Methyl esters of fatty acids can be converted to the corresponding diacid by beta-oxidation-blocked strains of Candida since Candida produces an esterase that demethylates the fatty acid ester during the omega-oxidation process, allowing conversion of methyl decanoate into the non-toxic diacid, sebacic acid. Unfortunately, having an excess of methyl decanoate in the fermentation broth prior to induction of the enzymes involved in omega-oxidation process results in sufficient demethylation of methyl decanoate to produce toxic levels of decanoic acid, resulting in rapid cell death and a failed fermentation. The standard fermentation procedure would utilize the feedstock (methyl decanoate) as inducer.
Growth was initiated with an inoculum of pre-culture to an initial OD600nm=1.0 and growth conditions of 35° C., 1000 rpm, 1 vvm, pH 5.8. Growth continued for approximately 10-12 h at which point the conversion phase was induced by the addition of either: 1) a bolus of 10 g/L of decane (Sigma-Aldrich #457116) for 6 h after which a continuous feed of methyl decanoate (TCI America #D0023) at 0.25 g/L-h was initiated or 2) no addition of decane. Induction was performed by initiating a continuous feed of methyl decanoate at 0.25 g/L-h. Because of the volatility of decane, the aeration rate was reduced to 0.3 vvm during the 6-h induction phase with decane as inducer. […]

CCCCCCCCCC(=O)OCC [Ethyl decanoate]
% improvement over ATTC 20962 sAA1082 (strain sAA1082): 58.9% | Feedstock Yield (g sebacic acid/g feedstock) sAA1082 (strain sAA1082; bioreactor, decane induction): 1.088 g sebacic acid/g feedstock | % improvement over ATTC 20962 sAA2178 (strain sAA2178): 50.7% | Feedstock Yield (g sebacic acid/g feedstock) sAA2178 (strain sAA2178; bioreactor, decane induction): 1.032 g sebacic acid/g feedstock | Feedstock Yield (g sebacic acid/g feedstock) ATCC 20962 [1]: 0.685 g sebacic acid/g feedstock

CCCCCCCCCCCC(=O)O [Lauric acid]
toxicity to Candida (Candida [2]): not as toxic to Candida as is decanoic acid

CCCCCCCCCC [decane]
conversion of decane [3]: converted exclusively to the C10 dicarboxylic acid, sebacic acid

CCCCCCCCCC(=O)O [decanoic acid]
toxicity to Candida (Candida [2]): high degree of toxicity | toxicity to Candida (viable cell count data) (Candida [4]): demonstrates the toxicity

CCCCCCCCCC(=O)OC [methyl decanoate]
toxicity to Candida (Candida [2]): very low toxicity
